This note sets out measurements from patent US20110189095A1, “CRKL TARGETING PEPTIDES” (The Board of Regents, of the University of Texas System, priority 2008, published 2011).

Ends that are not written are not given here.

The test system of one test is CRKL secretion. As to the kind of experiment: CRKL secretion inhibition study (immunoprecipitation from serum-free medium). In kind it is cell-based. As to conditions: cells incubated with compound in serum-free medium for 9 hours. The procedure:
Cells were synchronized for 24-48 hours in RPMI serum-free medium followed by a spin and filtration through a 0.22 μm filter, and pre-absorbed to control antibodies. An equal volume of PBS was added to the recovered supernatant prior to immunoprecipitating with the appropriate antibodies. Brefeldin A, glybenclamide, and thapsigargin were used for secretion inhibition studies. Cells were incubated with the compounds in serum-free medium for 9 hours prior to immunoprecipitation with the appropriate antibodies. No detergents were used in the immunoprecipitation studies. By using the methodology described above, CRKL is found in a free soluble state and not in vesicles.

Test [1] has as its system human prostate cancer xenografts (DU145-derived). As to the kind of experiment: Therapy in tumor-bearing mice (tumor volume). In kind it is in vivo, nude mice. Particulars: equimolar amounts, systemically administered, vs untreated or vehicle. The text has this:
Finally, a pilot pre-clinical trial that included four cohorts of size-matched tumor-bearing mice was designed and conducted (FIG. 11). Animals received the following reagents: (i) the synthetic PSI domain-mimic peptide, (ii) the synthetic PSI domain-mimic peptide linked to a pro-apoptotic peptidomimetic (Arap et al., 2004; Ellerby et al., 1999; Kolonin et al., 2004; Zurita et al., 2004) in order to induce targeted apoptosis upon receptor-mediated internalization, (iii) the synthetic pro-apoptotic peptidomimetic alone, or (iv) vehicle alone. All peptides or peptidomimetics were administered at equimolar concentrations.
DU145 tumor-bearing mice were size-matched and divided into individual cohorts (n=4 mice per group). The tumor-homing peptide […] (SEQ ID NO:1) was synthesized fused with the proapoptotic motif D(KLAKLAK)2. Unconjugated peptide […] (SEQ ID NO:1) or D(KLAKLAK)2 served as controls. The synthetic peptides were systemically administered and tumor volumes measured as described (Arap et al., 1998; Arap et al., 2004).

In another test the target is T1, rCRKL-SH3 (N) domain (Homo sapiens, UniProt P46109).
T1 construct: cDNAs corresponding to each of the SH domains were PCR-amplified and cloned into the Sac I and Xho I restriction sites; His-tag; made in house; host or cells: E. coli BL21
As to the kind of experiment: Peptide binding assay with recombinant His-tag proteins (ELISA). As to conditions: peptide coated on microtiter plates. The protocol: (§1) Synthetic tumor-homing peptide ([…]; SEQ ID NO:1) or PSI-derived peptide (NSTFLQEGMPTSA; SEQ ID NO:23) were coated on microtiter plates followed by blocking, and washing. The following recombinant His-tag proteins were added to the coated plates: rCRKL, rCRKL-SH2 domain, rCRKL-SH3 (N) domain, and rCRKL-SH3 (C) domain. An unrelated control protein (α2-Heremans-Schmid glycoprotein; AHSG) served as a negative control. The mixtures were incubated, washed, and labeled with the appropriate antibodies. Secondary antibodies conjugated to horse-radish peroxidase (HRP) were added followed by adding TMB substrate (Calbiochem), and analyzed by an automated ELISA reader (Bio-Tek). To determine the inhibitory activity of the tumor-homing peptide, the PSI-derived peptide, or the phage clone displaying the corresponding tumor-homing peptide were incubated with the rCRKL-SH3 (C) domain. Unrelated cyclic peptide sequences and insertless phage (fd-tet) served as negative controls. The admixtures were incubated and added to wells coated with the tumor-homing peptide. After incubation, the wells were washed, labeled with the appropriate antibodies, and processed as above.
Background: ELISA stands for enzyme-linked immunosorbent assay.

The next test addresses T2, rCRKL (Homo sapiens, UniProt P46109).
T2 construct: The open reading frame of full-length CRKL cDNA (Invitrogen) was PCR-amplified and cloned in a pET28a (Novagen) expression vector; His-tag; made in house; host or cells: E. coli BL21
The description is as above. As to conditions: peptide coated on microtiter plates. The protocol: as §1

For test [2], the target named is T3, rCRKL-SH3 (C) domain (Homo sapiens, UniProt P46109).
T3 construct: cDNAs corresponding to each of the SH domains were PCR-amplified and cloned into the Sac I and Xho I restriction sites; His-tag; made in house; host or cells: E. coli BL21
The test is described as above. Particulars: peptide coated on microtiter plates. The procedure: as §1

Test [3] concerns the target T3, rCRKL-SH3 (C) domain. As to the kind of experiment: Inhibition of rCRKL-SH3 (C) domain binding to coated tumor-homing peptide. As to conditions: inhibitor pre-incubated with rCRKL-SH3 (C). The protocol: as §1
The subject of test [4] is KS1767 and DU145 human tumor xenografts and EF43-FGF4 mouse mammary carcinoma. As to the kind of experiment: In vivo homing of targeted or control phage in mice bearing different tumor types. Particulars: systemic administration; KS1767, DU145 and EF43-FGF4 models. The procedure:
The tumor targeting attributes of CRKL-binding phage in tumor-bearing mice was evaluated next. First, phage constructs displaying either the selected CRKL-binding peptide or a panel of control (mutant or scrambled) peptides were designed and produced. Phage clones were tested in human tumor xenografts (Kaposi sarcoma KS1767 cells and prostate carcinoma DU145 cells) and an isogenic mouse tumor model (EF43-FGF4 mammary carcinoma).
In vivo targeting experiments with phage were performed as described (Hajitou et al., 2006; Arap et al., 1998; Arap et al., 2004; Kolonin et al., 2004; Marchio et al., 2004). Animals used in experiments were: Male nude mice bearing human DU145 xenografts or female nude mice with human Kaposi sarcoma KS1767-derived xenografts subcutaneously and immunocompetent Balb/c female mice bearing EF43-FGF4-derived breast tumors orthotopically in the mammary fat pad. Briefly, mice bearing tumors (˜8 mm) were anesthetized and injected intravenously via tail vein with 5×10^10 T.U. per mouse of wild-type […] (SEQ ID NO:1)-phage, or negative controls: fd-tet phage (insertless) and scrambled […] (SEQ ID NO:26)-phage, […] (SEQ ID NO:27)-phage, […] (SEQ ID NO:29)-phage, […] (SEQ ID NO:30)-phage or mutants […] (SEQ ID NO:25)-phage and […] (SEQ ID NO:28)-phage. Cohorts of two mice with size-matched tumors received each set of phage clones. After 24 hours, tumors were dissected from each mouse and phage recovered by bacterial infection and normalized by weight of tissue. The experiments were repeated twice for each tumor model. […] The fd phage served a negative control and the RGD-4C (Hajitou et al., 2006; Arap et al., 1998) served as a positive control. Only minimal background apoptosis (<1% of the total cells) were detected by TUNEL staining (Promega) on paraffin-embedded tumor tissue sections.

Another test relates to DU145 cells. As to the kind of experiment: Peptide internalization assay (WST-1 cell viability, annexin-V staining). In kind it is cell-based, human. The procedure: The internalization capability of the tumor-homing peptide fused through a glycinylglycine bridge to a pro-apoptotic sequence was tested as described Arap et al., 2004; Ellerby et al., 1999; Kolonin et al., 2004; Zurita et al., 2004). The conjugated tumor-homing peptide, […] (SEQ ID NO:67)-D(KLAKLAK)2 or the untargeted control peptide D(KLAKLAK)2 were synthesized and increasing equimolar peptide concentrations were added to the DU145 cells. Cell viability was assayed by the WST-1 reagent (Roche) and annexin-V staining for apoptosis (Zurita et al., 2004; Cardo-Vila et al., 2003). For tumor-homing phage localization studies, cells were incubated with 10^9 T.U. tumor-homing ([…]; SEQ ID NO:1) or a negative control (fd-tet) phage for 6 and 24 hours. Wells were washed with 20 mM glycine to remove non-specific cell surface bound phage and then fixed with 4% paraformaldehyde. The non-permeabilized cells were incubated with rabbit anti-fd bacteriophage antibody (Sigma) for 2 hours at room temperature followed by 1 hour incubation with Cy3-labeled anti-rabbit IgG antibody (Jackson ImmunoResearch). Cells were again fixed with 4% paraformaldehyde and mounted in the presence of DAPI (Vector Laboratories) and images were acquired with an Olympus fluorescence microscope.
(In general: Formazan colour is commonly taken as a measure of viable cells.)

Test [5] deals with CRKL binding to β1 integrin (Homo sapiens, UniProt P46109). As to the kind of experiment: Protein-protein interaction between CRKL and β1 integrin, inhibition assay. The protocol:
Phage binding assays on purified proteins were carried out as described (Giordano et al. 2001). Recombinant proteins were coated on microtiter wells as previous described (Cardo-Vila et al., 2003; Smith and Scott, 1993). Briefly, proteins were immobilized on microtiter wells overnight at 4° C. 50 μl of 1 μg/ml in PBS. Wells were washed twice with PBS, blocked with PBS containing 3% BSA for 2 hours at room temperature, and incubated with 10^9 T.U. wild-type tumor-homing phage ([…]; SEQ ID NO:1), scrambled phage ([…] (SEQ ID NO:26), […] (SEQ ID NO:27), […] (SEQ ID NO:29), […] (SEQ ID NO:30)), mutant phage ([…] (SEQ ID NO:25), […] (SEQ ID NO:28)), PSI-derived cyclic phage (CNSTFLQEGMPTSAC; SEQ ID NO:23) or fd-tet phage in 50 μl of PBS containing 1.5% BSA. After 1 hour at room temperature, wells were washed ten times with PBS and phage were recovered by bacterial infection. ELISA with polyclonal anti-CKRL confirmed the presence and concentration of the CKRL recombinant proteins on the wells. […] After 3 hours, binding of CKRL to integrins was detected by using an anti-CKRL antibody followed by an HRP-conjugated anti-rabbit IgG. […]

Sequence of CRKL binding to β1 integrin (P46109 whole entry): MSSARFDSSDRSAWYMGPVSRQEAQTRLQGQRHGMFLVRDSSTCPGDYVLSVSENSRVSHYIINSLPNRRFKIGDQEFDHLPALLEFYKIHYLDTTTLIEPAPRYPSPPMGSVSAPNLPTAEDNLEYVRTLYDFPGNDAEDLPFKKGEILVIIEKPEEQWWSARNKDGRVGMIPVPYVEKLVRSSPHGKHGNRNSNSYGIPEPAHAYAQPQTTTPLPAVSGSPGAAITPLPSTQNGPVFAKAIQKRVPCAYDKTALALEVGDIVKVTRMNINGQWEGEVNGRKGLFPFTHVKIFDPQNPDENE
T3 sequence (P46109 235-296 limits assumed): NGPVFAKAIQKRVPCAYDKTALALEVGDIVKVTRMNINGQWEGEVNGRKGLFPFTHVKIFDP
T2 sequence (P46109 whole entry): as the sequence (P46109 whole entry) above
T1 sequence (P46109 123-183 limits assumed): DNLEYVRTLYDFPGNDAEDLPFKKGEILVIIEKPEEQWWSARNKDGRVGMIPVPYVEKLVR

Take `C[C@H]1CCC/C=C/[C@@H]2C[C@H](O)C[C@H]2[C@H](O)/C=C/C(=O)O1` [brefeldin A]: in the test with CRKL secretion, the “CRKL secretion / release” value is “do not appear to inhibit”.

As to `COc1ccc(Cl)cc1C(=O)NCCc1ccc(S(=O)(=O)NC(=O)NC2CCCCC2)cc1` [glybenclamide], in the test on CRKL secretion, the “CRKL secretion / release” value is “does prevent”.

Take `C/C=C(/C)C(=O)O[C@H]1C(C)=C2[C@H]([C@@H]1OC(=O)CCCCCCC)[C@@](C)(OC(C)=O)C[C@H](OC(=O)CCC)[C@@]1(O)[C@H]2OC(=O)[C@@]1(C)O` [thapsigargin]: in the test on CRKL secretion, the “CRKL secretion / release” value is “do not appear to inhibit”.

With D(KLAKLAK)2 [reference compound], the “tumor growth / tumor volume” value in test [1] is recorded as “no differences in tumor volume”.

Turning to “NSTFLQEGMPTSA (listed as Homo sapiens) [synthetic peptide derived from the native PSI domain of β1 integrin, residues 50 to 62]”, in the test with rCRKL-SH3 (N) domain, the “binding to rCRKL-SH3 (N) domain” value was “bound”. The “binding to rCRKL” value with rCRKL is on record as “bound”. Further, the “binding to rCRKL-SH3 (C) domain” value with rCRKL-SH3 (C) domain [2] is “bound”. In addition, in the test with rCRKL-SH3 (C) domain [3], the “inhibition of binding of the tumor-homing peptide to rCRKL-SH3 (C) domain” value is reported as “inhibited”.

For the compound YRCETDSPHEFHLWNTFCAM, the “tumor homing / tumor targeting” value in test [4] is “no tumor targeting activity”.

On to YRCETDSPHEFHLWNTMCAF, for which the “tumor homing / tumor targeting” value in test [4] is “no tumor targeting activity”.

Consider YRCTLNSAFFWEDMTHECHA, for which the “tumor homing / tumor targeting” value in test [4] was “no tumor targeting”.

For YRCTLNSPAAAEDMTHECHA, the “tumor homing / tumor targeting” value in [4] is “no tumor targeting activity”.

Take “YRCTLNSPFFWEDMTHECHAGG (SEQ ID NO:67)-D(KLAKLAK)2”: in the test with DU145 cells (DU145 cells), the “programmed cell death (annexin-V staining)” value is reported as “Programmed cell death was confirmed”. The internalization entry with DU145 cells (DU145 cells, measured by cell viability and annexin-V) is given as “enables internalization”. Further, the “cell killing (cell viability, WST-1)” value in the test with DU145 cells (increasing equimolar concentrations, control D(KLAKLAK)2) is reported as “Targeted cell killing relative to controls”. In addition, the results for the “tumor growth / tumor volume” value in test [1] and in test [1] (listed as targeted pro-apoptotic peptidomimetic) were “Markedly reduced tumor growth” and “significantly inhibited”, respectively.

In the case of YRECTDSPHEFHLWNTMCAF, the “tumor homing / tumor targeting” value in test [4] was “no tumor targeting”.

Consider YRFCTSPFHEWHLENTDMCA, for which the “tumor homing / tumor targeting” value in [4] is given as “no tumor targeting”.

What is called IC50 is the point on the concentration scale where inhibition reaches its midpoint. Read a high IC50 as weaker potency. Take “gst-PSI: recombinant gst fusion protein of the entire PSI domain of β1 integrin (CLKANAKSCGECIQAGPNCGWCTNSTFLQEGMPTSARCDDLEALKKKGC; cysteine pairing not given here; also: N-terminal GST fusion, not written)”: the “inhibition of CRKL binding to β1 integrin” value in test [5] (up to 800 ηm) is given as “concentration-dependent inhibition”. The 50% inhibitory concentration (IC50) in [5] (wells coated with α5β1 integrin) stood at 20 nM.
